This is an account of results in patent publication US9382295B2, “Cyclic depsipeptide compounds and their uses” (Cypralis Limited, priority 2012, dated 2016).

A word on the solubility: it is how much of the substance goes into solution per volume. The Ki is the dissociation constant of the complex between target and ligand, obtained from inhibition or displacement.

≈ marks a conversion by molar mass, not a printed value. Read-outs that look alike come from different tables or passages of the source. Numbered stars: 1 amine (or outer) side, 2 acyl side, 3 side chain; on linkers, the order of the positions; unused ones are H or OH. Square brackets hold non-standard residues; d marks the D form. Peptide text beside a SMILES is read from it. X13 = C[C@H](CCN(Cc1ccccn1)Cc1ccccn1)[C@@H](O)[C@H](C(=O)[*:2])N(C)[*:1]; X10 = Cc1cccc(/C=C/C[C@@H](C)[C@@H](O)[C@H](C(=O)[*:2])N(C)[*:1])n1; X22 = C[C@H](Cc1nc2ccccc2[nH]1)[C@@H](O)[C@H](C(=O)[*:2])N(C)[*:1]; X20 = C[C@H](CCN1CCC(F)(F)CC1)[C@@H](O)[C@H](C(=O)[*:2])N(C)[*:1]; X29 = C[C@H](CCN(C)Cc1ccccn1)[C@@H](O)[C@H](C(=O)[*:2])N(C)[*:1]; X8 = C[C@H](CCN1CCC[C@H]1CO)[C@@H](O)[C@H](C(=O)[*:2])N(C)[*:1]; X18 = C[C@H](CCNCc1ccccc1)[C@@H](O)[C@H](C(=O)[*:2])N(C)[*:1]; d(aThr) = C[C@@H](O)[C@@H](N)C(=O)O; NMeL = CN[C@@H](CC(C)C)C(=O)O; dNMeL = CN[C@H](CC(C)C)C(=O)O; dNMeV = CN[C@@H](C(=O)O)C(C)C; Hiv = CC(C)[C@H](O)C(=O)O; Sar = CNCC(=O)O

The nature of series [1]: Water solubility assay (pH 7.8 buffer). The series is classed as physicochemical. On the procedure: ***Water Solubility Assay (Measured in pH 7.8 Buffer)
The onset of precipitation, if it occurred, was detected by an increase in absorbance at 650 nm.
Assay Buffer: 35 mM HEPES pH 7.8
Stock solutions of Control and Test Compounds: 10 mM in 100% DMSO
10 mM stock solutions of control and test compounds were prepared in 100% DMSO. A series of dilutions were prepared from the stock in DMSO so that the final concentrations in the assay were 0, 3.33, 10, 25, 50, 75 and 100 μM and DMSO was limited to 1%.
Assay buffer (247.5 μl) was placed into flat bottomed transparent 96-well plate. For blank samples DMSO (2.5 μl) was added. For test and control samples 2.5 μl of the appropriate DMSO dilution stocks were added to the appropriate well. All test and control compounds were performed in triplicate.
The plates were sealed with adhesive plate seal and shaken at 250 rpm at 25° C. for 18 h on a plate shaker.
After incubation the plate seals were taken off and any bubbles observed in wells removed. The plates were read on a SpectraMaxM5 with a 5 s pre-shake at 650 nm.
Data files were transferred to the appropriate worksheet and the solubility range of the compounds was calculated from the data.
The values shown in the tables indicate the concentration in μM (micromolar) at which the compound remains in solution.

Series [2] has as its target cyclophilin D (Cyp D) (Homo sapiens, UniProt P30405). Put plainly: Protease-free PPIase assay, cyclophilin D. The series is classed as biochemical. As for the experimental part: (§1) The protease-free PPIase assay measures the rate of cis to trans conversion of a peptide substrate catalyzed by the enzymes cyclophilin A and cyclophilin D. Addition of a cyclophilin inhibitor (e.g., a test compound) slows the catalyzed rate and a Ki value is obtained. […] 35 mM HEPES pH 7.8, filtered through a 0.2 μm filter. 50 μM DTT was added prior to use each day and then the buffer was stored on ice. Succinimide-[…]) (from Bachem AG, L-1400), 20 mg/ml prepared in 0.5 M LiCl in trifluoroethanol. All readings were taken with an Agilent 8453 Spectrophotometer which consists of a cuvette holder, stirrer and chiller to maintain a stirred cuvette temperature of 10.0±0.1° C. The temperature is monitored by the use of temperature probe. […] The inhibitor was diluted in 100% DMSO, and then added to the assay to a maximum final concentration of 0.5% DMSO in the assay. A blank spectrum was obtained, then 3 μL of enzyme was added (2 nM final concentration) and then 3 μL substrate (60 μM final concentration) added. The absorbance was measured at 330 nm for 300 s or 500 s for blank runs (NOTE: the substrate must be added in one quick injection and the measurements started immediately to minimize mixing errors). A first order rate equation was fitted to the absorbance data, for each concentration of inhibitor, to obtain the rate constant (the first 10 to 15 seconds were excluded as mixing causes errors in this portion of curve). The catalytic rate was calculated from the enzymatic rate constant minus the background rate constant. An exponential curve was generated using the catalytic rate constants versus the inhibitor concentration to obtain the Ki value for the inhibitor. The Ki value is indicative of the binding affinity between the test compound and cyclophilin A or cyclophilin D.

Series [3] has as its target T1, cyclophilin A (Cyp A) (Homo sapiens, UniProt P62937).
T1 construct: purchased Sigma C3805
Description: Protease-free PPIase assay, cyclophilin A. The format is biochemical. On the procedure:
as §1, with “ice. Human recombinant cyclophilin A (Cyp A) (Sigma C3805) enzyme was diluted to 1 μM with enzyme dilution buffer (20 mM HEPES pH 7.8, 40% glycerol, 50 μM DTT and 1 μM BSA) and stored at -20° C.” for “ice.”

The mark [4] stands for this setting: 35 mM HEPES buffer, 35 mM HEPES pH 7.8, 1% DMSO, 25° C., 18 h, concentration at which compound remains in solution, read-out: Solubility.
Where [5] appears, read: protease-free PPIase assay, class symbols, read-out: CypD Ki.
[6] abbreviates: protease-free PPIase assay, class symbols, read-out: CypA Ki.

Sequence of cyclophilin D (Cyp D) (P30405 30-207): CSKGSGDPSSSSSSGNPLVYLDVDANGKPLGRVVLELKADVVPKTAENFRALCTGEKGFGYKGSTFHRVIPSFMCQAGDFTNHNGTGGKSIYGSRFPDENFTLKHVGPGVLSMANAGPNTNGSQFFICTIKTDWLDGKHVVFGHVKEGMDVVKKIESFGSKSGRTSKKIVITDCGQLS
T1 sequence (P62937 whole entry): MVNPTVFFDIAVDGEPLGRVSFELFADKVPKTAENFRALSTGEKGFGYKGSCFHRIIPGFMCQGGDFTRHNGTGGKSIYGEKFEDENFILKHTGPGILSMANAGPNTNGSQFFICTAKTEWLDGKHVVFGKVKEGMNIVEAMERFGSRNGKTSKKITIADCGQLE

For the compound `CC(C)C[C@@H]1C(=O)N[C@H](CC(C)C)C(=O)N(C)[C@H](C(C)C)C(=O)N(C)[C@H]([C@H](O)[C@H](C)CCN(Cc2ccccn2)Cc2ccccn2)C(=O)N[C@H]([C@@H](C)O)C(=O)N(C)CC(=O)N(C)[C@@H](CC(C)C)C(=O)N[C@H](CC(C)C)C(=O)N(C)[C@H](CC(C)C)C(=O)N[C@H](C)C(=O)O[C@@H](C(C)C)C(=O)N1C` [Example 30, cyclo-[(3R,4R,5S)-4-(hydroxy)-3-methyl-5-(methylamino)-1-N-(bis-pyridin-2-ylmethyl-amine)-hexanoic acid-Thr-Sar-MeLeu-Leu-MeLeu-Ala-D-Hiv-MeLeu-Leu-MeVal]] (cyclo([Hiv][dNMeL][dL][dNMeV][X13][d(aThr)][Sar][NMeL][dL][dNMeL][dA])), the solubility at 18 h in series [1] (setting [4]) lay within 10 to 25 µM (≈ 14.2 to 35.5 µg/mL). Besides, the inhibitory constant (Ki) was 1 to 25 nM in series [2] (setting [5]) and 25 to 100 nM in series [3] (setting [6]).

`CC(C)C[C@@H]1C(=O)N[C@H](CC(C)C)C(=O)N(C)[C@H](C(C)C)C(=O)N(C)[C@H]([C@H](O)[C@H](C)CCN2CCC[C@H]2CO)C(=O)N[C@H]([C@@H](C)O)C(=O)N(C)CC(=O)N(C)[C@@H](CC(C)C)C(=O)N[C@H](CC(C)C)C(=O)N(C)[C@H](CC(C)C)C(=O)N[C@H](C)C(=O)O[C@@H](C(C)C)C(=O)N1C` [Example 26, cyclo-[(3R,4R,5S)-4-(hydroxy)-3-methyl-5-(methylamino)-1-N—((S)-1-Pyrrolidin-2-yl-methanol)-hexanoic acid-Thr-Sar-MeLeu-Leu-MeLeu-Ala-D-Hiv-MeLeu-Leu-MeVal]] (cyclo([Hiv][dNMeL][dL][dNMeV][X8][d(aThr)][Sar][NMeL][dL][dNMeL][dA])) registered a solubility at 18 h in series [1] (pH 7.8) of over 100 µM. The Ki in series [2] was 25 to 100 nM; in series [3], 100 to 300 nM.

For `CC(C)C[C@@H]1C(=O)N[C@H](CC(C)C)C(=O)N(C)[C@H](C(C)C)C(=O)N(C)[C@H]([C@H](O)[C@H](C)CCN(C)Cc2ccccn2)C(=O)N[C@H]([C@@H](C)O)C(=O)N(C)CC(=O)N(C)[C@@H](CC(C)C)C(=O)N[C@H](CC(C)C)C(=O)N(C)[C@H](CC(C)C)C(=O)N[C@H](C)C(=O)O[C@@H](C(C)C)C(=O)N1C` [Example 31, cyclo-[(3R,4R,5S)-4-(hydroxy)-3-methyl-5-(methylamino)-1-N-(methyl-pyridin-2-ylmethyl-amino)-hexanoic acid-Thr-Sar-MeLeu-Leu-MeLeu-Ala-D-Hiv-MeLeu-Leu-MeVal]] (cyclo([Hiv][dNMeL][dL][dNMeV][X29][d(aThr)][Sar][NMeL][dL][dNMeL][dA])), in series [1] (setting [4]), the solubility at 18 h lay within 50 to 75 µM (≈ 67.1 to 101 µg/mL). The figures for the inhibition constant Ki in series [2] (setting [5]) and in series [3] (setting [6]) were 1 to 25 nM and 25 to 100 nM, respectively.

With `CC(C)C[C@@H]1C(=O)N[C@H](CC(C)C)C(=O)N(C)[C@H](C(C)C)C(=O)N(C)[C@H]([C@H](O)[C@H](C)CCN2CCC(F)(F)CC2)C(=O)N[C@H]([C@@H](C)O)C(=O)N(C)CC(=O)N(C)[C@@H](CC(C)C)C(=O)N[C@H](CC(C)C)C(=O)N(C)[C@H](CC(C)C)C(=O)N[C@H](C)C(=O)O[C@@H](C(C)C)C(=O)N1C` [Example 24, cyclo-[(3R,4R,5S)-4-(hydroxy)-3-methyl-5-(methylamino)-1-N-(4,4-difluoro-piperidine)-hexanoic acid-Thr-Sar-MeLeu-Leu-MeLeu-Ala-D-Hiv-MeLeu-Leu-MeVal]] (cyclo([Hiv][dNMeL][dL][dNMeV][X20][d(aThr)][Sar][NMeL][dL][dNMeL][dA])), the solubility at 18 h in series [1] (pH 7.8) fell in the range of 25 to 50 µM (≈ 33.5 to 67 µg/mL). For the same compound, the inhibition constant Ki in series [2] and in series [3] was 1 to 25 nM each time.

In the case of `CC(C)C[C@@H]1C(=O)N[C@H](CC(C)C)C(=O)N(C)[C@H](C(C)C)C(=O)N(C)[C@H]([C@H](O)[C@H](C)CCNCc2ccccc2)C(=O)N[C@H]([C@@H](C)O)C(=O)N(C)CC(=O)N(C)[C@@H](CC(C)C)C(=O)N[C@H](CC(C)C)C(=O)N(C)[C@H](CC(C)C)C(=O)N[C@H](C)C(=O)O[C@@H](C(C)C)C(=O)N1C` [Example 35, cyclo-[(3R,4R,5S)-1-benzylamino-3-methyl-5-methylamino-4-hydroxy-hexanoic acid-Thr-Sar-MeLeu-Leu-MeLeu-Ala-D-Hiv-MeLeu-Leu-MeVal]] (cyclo([Hiv][dNMeL][dL][dNMeV][X18][d(aThr)][Sar][NMeL][dL][dNMeL][dA])), in series [1] (pH 7.8), the solubility at 18 h was in the range of 25 to 50 µM (≈ 33.2 to 66.3 µg/mL). For the same compound, the figures for the Ki in series [2] and in series [3] were 1 to 25 nM and 25 to 100 nM, respectively.

`CC(C)C[C@@H]1C(=O)N[C@H](CC(C)C)C(=O)N(C)[C@H](C(C)C)C(=O)N(C)[C@H]([C@H](O)[C@H](C)Cc2nc3ccccc3[nH]2)C(=O)N[C@H]([C@@H](C)O)C(=O)N(C)CC(=O)N(C)[C@@H](CC(C)C)C(=O)N[C@H](CC(C)C)C(=O)N(C)[C@H](CC(C)C)C(=O)N[C@H](C)C(=O)O[C@@H](C(C)C)C(=O)N1C` [Example 33, cyclo-[(2R,3R,4S)-1-(1H-benzoimidazol-2-yl)-2-methyl-4-methylamino-3-hydroxy-pentanoic acid-Thr-Sar-MeLeu-Leu-MeLeu-Ala-D-Hiv-MeLeu-Leu-MeVal]] (cyclo([Hiv][dNMeL][dL][dNMeV][X22][d(aThr)][Sar][NMeL][dL][dNMeL][dA])): the solubility at 18 h in series [1] (pH 7.8) lay in the range of 25 to 50 µM (≈ 33.1 to 66.2 µg/mL). Moreover, the Ki in series [2] and in series [3] was 1 to 25 nM each time.

In the case of `Cc1cccc(/C=C/C[C@@H](C)[C@@H](O)[C@@H]2C(=O)N[C@H]([C@@H](C)O)C(=O)N(C)CC(=O)N(C)[C@@H](CC(C)C)C(=O)N[C@H](CC(C)C)C(=O)N(C)[C@H](CC(C)C)C(=O)N[C@H](C)C(=O)O[C@@H](C(C)C)C(=O)N(C)[C@H](CC(C)C)C(=O)N[C@H](CC(C)C)C(=O)N(C)[C@H](C(C)C)C(=O)N2C)n1` [Example 14, cyclo-[(3R,4R,5S)-4-(hydroxy)-3-methyl-5-(methylamino)-1-(6-methyl-pyridin-2-yl)-hept-1-enoic acid-Thr-Sar-MeLeu-Leu-MeLeu-Ala-D-Hiv-MeLeu-Leu-MeVal]] (cyclo([Hiv][dNMeL][dL][dNMeV][X10][d(aThr)][Sar][NMeL][dL][dNMeL][dA])), the solubility at 18 h in series [1] (pH 7.8) was 10 to 25 µM (≈ 13.2 to 33.1 µg/mL). Also, the Ki in series [2] and in series [3] was 1 to 25 nM in each case.
